According to patent US20240158447A1, “PEPTIDES FOR USE IN THE TREATMENT OR PREVENTION OF MYOCARDIAL DAMAGE” (THE UNIVERSITY OF WESTERN AUSTRALIA, priority 2020, published 2024):

Tests used:
[1] = system: cTnI-G203S mutant myocytes; test: Flavoprotein oxidation response to BayK(−), cTnI-G203S myocytes (Example 10); type: cell-based, mouse; settings: 0.5 μM peptide, 10 μM BayK(−), FIG. 10D
Procedure: (§1) In this experiment wt myocytes were pre-exposed to 0.1, 0.5 or 1 μM for 20 min and assessed changes in flavoprotein oxidation and ψm.
Measurement of mitochondrial flavoprotein oxidation: Flavoprotein autofluorescence was used to measure flavoprotein oxidation based on previously described methods (Yaniv Y, Juhaszova M, Lyashkov A E, Spurgeon H A, Sollott S J, Lakatta E G. Ca2+-regulated-cAMP/PKA signaling in cardiac pacemaker cells links ATP supply to demand. J Mol Cell Cardiol. 2011; 51(5):740-8). […] Fluorescent images were acquired at 1 min intervals with 200 ms exposure. Metamorph 6.3 (Version 7.10.3) was used to quantify the signal by manually tracing myocytes. […] Fluorescence values recorded over 5 min before and 5 min after addition of drugs were averaged and alterations in fluorescent ratios reported as the percentage increase from the basal average. FCCP (50 μM) and NaCN (40 mM) was added at the end of each experiment to achieve a respective maximal and minimal fluorescence value indicative of maximal and minimal flavoprotein oxidation.
The ICA-L agonist BayK(−) was used to activate the channel and assess mitochondrial function. […] FIG. 10 presents the mean+/−SEM of flavoprotein fluorescence from cTnI.2 wt and cTnI-G2035 mutant myocytes before and after exposure to 10 μM BayK(−) in the presence of 1 μM AID(S)-TAT, and increasing concentrations of variant peptides as indicated. […]

[2] = system: cTnI.2 wt myocytes; test: Mitochondrial membrane potential (JC-1) response to BayK(−), wt myocytes (Example 10); type: cell-based, mouse; settings: 0.5 μM peptide, calcium-free, FIG. 11A
Procedure: as §1
Measurement of mitochondrial membrane potential: The fluorescent indicator 5,5′,6,6′-tetrachloro1,1′,3,3′-tetraethylbenzimidazolylcarbocyanine iodide (JC-1) was used to measure mitochondrial membrane potential (ψm) as previously described (Viola H M, Arthur P G, Hool L C. Transient exposure to hydrogen peroxide causes an increase in mitochondria-derived superoxide as a result of sustained alteration in L-type Ca2+ channel function in the absence of apoptosis in ventricular myocytes. Circ Res. 2007; 100(7):1036-44). […] Images were acquired at 2 min intervals with 50 ms exposure. Metamorph 6.3 (Version 7.10.3) was used to quantify the signal by manually tracing myocytes. An equivalent region not containing cells was used as background and was subtracted. The 580 nm/535 nm ratiometric fluorescence values recorded over 6 min before and 4 min after addition of drugs were averaged and alterations in fluorescent ratios reported as the percentage increase from the basal average. […] In addition, individual 580 and 535 signals were assessed in each experiment to determine whether the fluorescent indicator was accurately measuring ψm. […]
Based on results obtained from in vitro assessment of flavoprotein oxidation, the effect of 0.5 μM AID-TAT variants on changes in mitochondrial membrane potential (ψm) was further explored. Experiments were performed using JC-1 fluorescence under calcium-free conditions as previously described (Viola H, Johnstone V, Cserne Szappanos H, Richman T, Tsoutsman T, Filipovska A, et al. The L-type Ca(2+) channel facilitates abnormal metabolic activity in the cTnI-G2035 mouse model of hypertrophic cardiomyopathy. J Physiol. 2016; 594(14):4051-70; Viola H M, Shah A A, Johnstone V P A, Cserne Szappanos H, Hodson M P, Hool L C. Characterization and validation of a preventative therapy for hypertrophic cardiomyopathy in a murine model of the disease. Proc Natl Acad Sci U S A. 2020; 117(37):23113-24). […]

[3] = system: cTnI-G203S mutant myocytes; test: Mitochondrial membrane potential (JC-1) response to BayK(−), cTnI-G203S myocytes (Example 10); type: cell-based, mouse; settings: for BayK(−) induced increase in ψm (JC-1 fluorescence): 0.5 μM peptide, calcium-free, FIG. 11B
Procedure: as §1
Measurement of mitochondrial membrane potential: The fluorescent indicator 5,5′,6,6′-tetrachloro1,1′,3,3′-tetraethylbenzimidazolylcarbocyanine iodide (JC-1) was used to measure mitochondrial membrane potential (ψm) as previously described (Viola H M, Arthur P G, Hool L C. Transient exposure to hydrogen peroxide causes an increase in mitochondria-derived superoxide as a result of sustained alteration in L-type Ca2+ channel function in the absence of apoptosis in ventricular myocytes. Circ Res. 2007; 100(7):1036-44). […] Images were acquired at 2 min intervals with 50 ms exposure. Metamorph 6.3 (Version 7.10.3) was used to quantify the signal by manually tracing myocytes. An equivalent region not containing cells was used as background and was subtracted. The 580 nm/535 nm ratiometric fluorescence values recorded over 6 min before and 4 min after addition of drugs were averaged and alterations in fluorescent ratios reported as the percentage increase from the basal average. To confirm that the signal was indicative of ψm, 40 mM NaCN was added at the end of each experiment to collapse ψm. In addition, individual 580 and 535 signals were assessed in each experiment to determine whether the fluorescent indicator was accurately measuring ψm. For calcium-free experiments, cells were exposed to calcium-free HBS (supplemented with 3 mM EGTA and 200 nM JC-1) for at least 3 h prior to measuring changes in ψm.
Based on results obtained from in vitro assessment of flavoprotein oxidation, the effect of 0.5 μM AID-TAT variants on changes in mitochondrial membrane potential (ψm) was further explored. Experiments were performed using JC-1 fluorescence under calcium-free conditions as previously described (Viola H, Johnstone V, Cserne Szappanos H, Richman T, Tsoutsman T, Filipovska A, et al. The L-type Ca(2+) channel facilitates abnormal metabolic activity in the cTnI-G2035 mouse model of hypertrophic cardiomyopathy. J Physiol. 2016; 594(14):4051-70; Viola H M, Shah A A, Johnstone V P A, Cserne Szappanos H, Hodson M P, Hool L C. Characterization and validation of a preventative therapy for hypertrophic cardiomyopathy in a murine model of the disease. Proc Natl Acad Sci U S A. 2020; 117(37):23113-24). […] FIG. 11 presents the mean+/−SE of JC-1 fluorescence from cTnI.2 wt and cTnI-G203S mutant myocytes before and after exposure to 10 μM BayK(−) in the presence of 1 μM AID(S)-TAT, and 0.5 μM of variant peptides as indicated. N=no. of animals, n=no. of cardiomyocytes. P values shown compared with AID(S)-TAT as determined by the Kruskal-Wallis test.

[4] = system: cTnI-G203S mice; test: Echocardiography of pre-cardiomyopathic cTnI-G203S mice (Example 15); type: in vivo, mouse; settings: 5 μM, 3×/wk/5 wk; versus AID(S)-TAT; FIG. 15
From the text: Twenty to thirty week-old male mice expressing the human cTnI gene encoding the human disease-causing cTnI-G203S were generated and used for the in vivo studies. By way of background, the mice develop hallmark features of HCM between 20 and 25 weeks (Viola H, Johnstone V, Cserne Szappanos H, Richman T, Tsoutsman T, Filipovska A, et al. The L-type Ca(2+) channel facilitates abnormal metabolic activity in the cTnI-G2035 mouse model of hypertrophic cardiomyopathy. J Physiol. 2016; 594(14):4051-70; Viola H M, Shah A A, Johnstone V P A, Cserne Szappanos H, Hodson M P, Hool L C. Characterization and validation of a preventative therapy for hypertrophic cardiomyopathy in a murine model of the disease. Proc Nati Aced Sci U S A. 2020; 117(37):23113-24; Tsoutsman T, Chung J, Doolan A, Nguyen L, Williams IA, Tu E, et al. Molecular insights from a novel cardiac troponin I mouse model of familial hypertrophic cardiomyopathy. J Mol Cell Cardiol. 2006; 41(4):623-32). Age-matched male mice expressing the normal human troponin I gene were used as controls and indicated as wild-type (wt). For in vivo studies, 20-week old cTnI-G203S mice were treated with 10 μM AID(S)-TAT (2 mg/kg) or 5 μM AID-TAT mutant peptides via intraperitoneal injection, 3 times per week for a total duration of 5 weeks. The peptide was dissolved in phosphate buffered saline solution (PBS), and the total amount of the 10 μM AID-TAT mutant peptides administered over 5 weeks was 0.9 mg. The total amount of the 5 μM AID-TAT mutant peptides administered over 5 weeks was 0.45 mg Male mice were utilized to eliminate potential differences in responses due to gender. The number of mice used is indicated by N.
Echocardiographic studies to measure left ventricular function were performed on mice under light methoxyflurane anaesthesia with the use of an i13L probe on a Vivid™ 7 IQ ultrasound system (GE Healthcare, Little Chalfont, UK) as previously described (Viola H, Johnstone V, Cserne Szappanos H, Richman T, Tsoutsman T, Filipovska A, et al. The L-type Ca(2+) channel facilitates abnormal metabolic activity in the cTnI-G2035 mouse model of hypertrophic cardiomyopathy. J Physiol. 2016; 594(14):4051-70; Viola H M, Shah A A, Johnstone V P A, Cserne Szappanos H, Hodson M P, Hool L C. Characterization and validation of a preventative therapy for hypertrophic cardiomyopathy in a murine model of the disease. Proc Natl Acad Sci U S A. 2020; 117(37):23113-24; Viola H M, Johnstone V P A, Cserne Szappanos H, Richman T R, Tsoutsman T, Filipovska A, et al. The Role of the L-Type Ca(2+) Channel in Altered Metabolic Activity in a Murine Model of Hypertrophic Cardiomyopathy. JACC Basic Transl Sci. 2016; 1(1-2):61-72). Each N represents the average of quantitative measurements from wt or cTnI-G203S mice for each treatment group.

[5] = system: cTnI-G203S mice; test: Heart weight to body weight ratio of treated cTnI-G203S mice; type: in vivo, mouse; settings: 5 μM, 3×/wk/5 wk; compared with cTnI-G203S AID(S)-TAT; FIG. 16
Procedure: The effect of treatment of the mice with peptides on the development of hypertrophy assessed as changes in heart weight to body weight ratio was also examined. […] FIG. 16 presents the mean±SEM of heart weight to body weight ratio measurements from wt and cTnI-G203S mice treated with 10 μM AID(S)-TAT, 10 μM AID-TAT, 5 μM AIDP7-TAT, 5 μM AIDP14-TAT, 5 μM AIDP15-TAT or 5 μM AIDP16-TAT. n=number of mice as indicated. *P<0.05, **P<0.01 compared with cTnI-G203S AID(S)-TAT as determined by Kruskal-Wallis tests.

[6] = system: cTnI.2 wt myocytes; test: Flavoprotein oxidation response to BayK(−), wt myocytes (Example 10); type: cell-based, mouse; settings: 1 μM peptide 20 min, 10 μM BayK(−), FIG. 10A
Procedure: as §1
Measurement of mitochondrial flavoprotein oxidation: Flavoprotein autofluorescence was used to measure flavoprotein oxidation based on previously described methods (Yaniv Y, Juhaszova M, Lyashkov A E, Spurgeon H A, Sollott S J, Lakatta E G. Ca2+-regulated-cAMP/PKA signaling in cardiac pacemaker cells links ATP supply to demand. J Mol Cell Cardiol. 2011; 51(5):740-8). […] Fluorescent images were acquired at 1 min intervals with 200 ms exposure. Metamorph 6.3 (Version 7.10.3) was used to quantify the signal by manually tracing myocytes. An equivalent region not containing cells was used as background and was subtracted. Fluorescence values recorded over 5 min before and 5 min after addition of drugs were averaged and alterations in fluorescent ratios reported as the percentage increase from the basal average. FCCP (50 μM) and NaCN (40 mM) was added at the end of each experiment to achieve a respective maximal and minimal fluorescence value indicative of maximal and minimal flavoprotein oxidation.
The ICA-L agonist BayK(−) was used to activate the channel and assess mitochondrial function. […] FIG. 10 presents the mean+/−SEM of flavoprotein fluorescence from cTnI.2 wt and cTnI-G2035 mutant myocytes before and after exposure to 10 μM BayK(−) in the presence of 1 μM AID(S)-TAT, and increasing concentrations of variant peptides as indicated. N=no. of animals, n=no. of cardiomyocytes. P values shown compared with AID(S)-TAT as determined by the Kruskal-Wallis test.

Substance | BayK(−) induced increase in flavoprotein oxidation [1] | BayK(−) induced increase in ψm (JC-1 fluorescence) [2] | BayK(−) induced increase in ψm (JC-1 fluorescence) [3] | normalising mitochondrial metabolic activity (in vitro, overall) ([3]; flavoprotein oxidation and JC-1 data together) | EF, ejection fraction [4] | FS, fractional shortening [4] | IVSd, intraventricular septum in diastole [4] | IVSs, intraventricular septum in systole [4] | LVEDd, left ventricular end diameter during diastole [4] | LVEDs, left ventricular end diameter during systole [4] | LVPWd, left ventricular posterior wall in diastole [4] | LVPWs, left ventricular posterior wall in systole [4] | heart weight to body weight ratio [5] | BayK(−) induced increase in flavoprotein oxidation [6]
AIDP14-TAT: QQEEEDLKGYLDWITQAE with TAT sequence | significantly attenuated increases in flavoprotein oxidation resulting from BayK(−) exposure | significantly attenuated the response | significantly attenuated the response | most effective in normalising mitochondrial metabolic activity | effectively restored | effectively restored | effectively restored | effectively restored | trend toward increased LVEDd | effectively restored | effectively restored | effectively restored | significantly decreased heart weight/body weight | 
AIDP15-TAT: QQEEEDEKGYLDWITQAE with TAT sequence |  | significantly attenuated the response | significantly attenuated the response |  | effectively restored | effectively restored | effectively restored | effectively restored |  |  |  | effectively restored |  | just as effective at attenuating the response in wt myocytes as the original AID-TAT
